Results published in patent US20240150340A1, “CDK Inhibitors And Their Use As Pharmaceuticals” (Prelude Therapeutics Incorporated, priority 2022, published 2024).
pIC50: −log10 of the molar value.

Assays:
[1] = target: T1, CDK2/Cyclin E2 (Homo sapiens, UniProt P24941); assay: CDK2/CyclinE2 Enzymatic Activity Assay (TR-FRET); assay type: biochemical; details: ATP 1 mM final, read-out: CDK2_E1 IC50
T1 construct: Recombinant protein complex CDK2/Cyclin E2, expressed from insect cell, was purchased from ProQinase
How it was run: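 Recombinant insect-cell CDK2/Cyclin E2 (1 nM) phosphorylated ULight-4E-BP1 (50 nM) with 1 mM ATP in HEPES pH 7.4 buffer, after 20 min compound preincubation; MgCl2 (10 mM) started the 45 min reaction at 37° C. Europium anti-phospho-4E-BP1 TR-FRET read; 9-dose IC50 by 4-parameter fit.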

[2] = target: T2, CDK4/Cyclin D1 (Homo sapiens, UniProt P11802); assay: CDK4/CyclinD1 Enzymatic Activity Assay (TR-FRET); assay type: biochemical; details: ATP 2 mM final, read-out: CDK4_D1 IC50
T2 construct: purchased ProQinase; host or cells: insect cell
How it was run: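 Insect-cell-expressed CDK4/Cyclin D1 (1 nM) with ULight-4E-BP1 (100 nM) and 2 mM ATP in HEPES pH 7.4; 9-dose 3-fold compound series preincubated 20 min, reaction started with 10 mM MgCl2, 45 min at 37° C. Europium anti-P-4E-BP1 TR-FRET read; IC50 from 4-parameter Hill fit.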

[3] = tested on: OVCAR3 p-RB; assay: pRB ICW Assay in OVCAR3 Cells; assay type: cell-based; details: Homo sapiens, OVCAR-3, incubated with compound for 2 hours
How it was run: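 In-Cell Western on OVCAR3: phospho-RB antibody signal with DRAQ5 counterstain read at 700 and 800 nm after fixation. Compounds were applied for 2 h at 37° C. as 9-point ½-log dilutions in duplicate; 10 μM reference compound defined full inhibition.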

T2 sequence (P11802 whole entry): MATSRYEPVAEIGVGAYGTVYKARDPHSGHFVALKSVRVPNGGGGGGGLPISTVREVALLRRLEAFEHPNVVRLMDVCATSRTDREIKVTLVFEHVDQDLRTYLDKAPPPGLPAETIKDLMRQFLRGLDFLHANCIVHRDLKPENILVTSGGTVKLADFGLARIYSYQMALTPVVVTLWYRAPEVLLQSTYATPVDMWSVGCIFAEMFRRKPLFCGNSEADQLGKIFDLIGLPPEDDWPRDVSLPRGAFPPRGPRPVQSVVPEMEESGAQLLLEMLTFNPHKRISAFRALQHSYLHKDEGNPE
T2 sequence (P24385 whole entry partner): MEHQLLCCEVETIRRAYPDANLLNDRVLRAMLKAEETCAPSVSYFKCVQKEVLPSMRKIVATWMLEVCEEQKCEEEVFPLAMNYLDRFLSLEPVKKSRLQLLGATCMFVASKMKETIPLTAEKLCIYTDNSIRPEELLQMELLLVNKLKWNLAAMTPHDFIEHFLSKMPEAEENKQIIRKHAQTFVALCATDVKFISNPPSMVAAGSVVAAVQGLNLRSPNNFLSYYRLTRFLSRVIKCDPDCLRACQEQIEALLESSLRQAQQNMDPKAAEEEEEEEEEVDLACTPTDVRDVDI

Row | SMILES | pIC50 [1] | pIC50 [2] | pIC50 [3]
1 | Cn1cnc(S(=O)(=O)N2CCC(Nc3ncc(C(F)(F)F)c(-c4cc(C#N)c(CC(C)(C)O)s4)n3)CC2)c1 [Example 39, 2-(2-hydroxy-2-methylpropyl)-5-(2-((1-((1-methyl-1H-imidazol-4-yl)sulfonyl)piperidin-4-yl)amino)-5-(trifluoromethyl)pyrimidin-4-yl)thiophene-3-carbonitrile] | ≥ 7.00 | ≥ 7.00 | ≥ 7.00
2 | C[C@@H]1CN(S(=O)(=O)c2cn(C)cn2)CC[C@@H]1Nc1ncc(C(F)(F)F)c(-c2cc(C#N)c(CC(C)(C)O)s2)n1 [Example 40, 2-(2-hydroxy-2-methylpropyl)-5-(2-(((3R,4S)-3-methyl-1-((1-methyl-1H-imidazol-4-yl)sulfonyl)piperidin-4-yl)amino)-5-(trifluoromethyl)pyrimidin-4-yl)thiophene-3-carbonitrile] | ≥ 7.00 | 6.30 to 7.00 | 6.30 to 7.00
3 | Cn1cc(S(=O)(=O)N2CC[C@H](Nc3ncc(C(F)(F)F)c(-c4cc(C#N)c(CC(C)(C)O)s4)n3)[C@H](F)C2)cn1 [Example 41, 5-(2-(((3R,4S)-3-fluoro-1-((1-methyl-1H-pyrazol-4-yl)sulfonyl)piperidin-4-yl)amino)-5-(trifluoromethyl)pyrimidin-4-yl)-2-(2-hydroxy-2-methylpropyl)thiophene-3-carbonitrile] | ≥ 7.00 | ≥ 7.00 | ≥ 7.00
4 | Cn1cnc(S(=O)(=O)N2CC[C@H](Nc3ncc(C(F)(F)F)c(-c4cc(C#N)c(CC(C)(C)O)s4)n3)[C@H](F)C2)c1 [Example 42, 5-(2-(((3R,4S)-3-fluoro-1-((1-methyl-1H-imidazol-4-yl)sulfonyl)piperidin-4-yl)amino)-5-(trifluoromethyl)pyrimidin-4-yl)-2-(2-hydroxy-2-methylpropyl)thiophene-3-carbonitrile] | ≥ 7.00 | ≥ 7.00 | ≥ 7.00
5 | C[C@@H]1CN(S(C)(=O)=O)CC[C@@H]1Nc1ncc(C(F)(F)F)c(-c2cc(C(N)=O)c(CC(C)(C)O)s2)n1 [Example 43, 2-(2-hydroxy-2-methylpropyl)-5-(2-(((3R,4S)-3-methyl-1-(methylsulfonyl)piperidin-4-yl)amino)-5-(trifluoromethyl)pyrimidin-4-yl)thiophene-3-carboxamide] | ≥ 7.00 | 6.30 to 7.00 | < 6.30
6 | C[C@@H]1CN(S(=O)(=O)c2cnn(C)c2)CC[C@@H]1Nc1ncc(C(F)(F)F)c(-c2cc(C(N)=O)c(CC(C)(C)O)s2)n1 [Example 44, 2-(2-hydroxy-2-methylpropyl)-5-(2-(((3R,4S)-3-methyl-1-((1-methyl-1H-pyrazol-4-yl)sulfonyl)piperidin-4-yl)amino)-5-(trifluoromethyl)pyrimidin-4-yl)thiophene-3-carboxamide] | ≥ 7.00 | ≥ 7.00 | ≥ 7.00
7 | Cn1cnc(S(=O)(=O)N2CCC(Nc3ncc(C(F)(F)F)c(-c4cc(C(N)=O)c(CC(C)(C)O)s4)n3)CC2)c1 [Example 45, 2-(2-hydroxy-2-methylpropyl)-5-(2-((1-((1-methyl-1H-imidazol-4-yl)sulfonyl)piperidin-4-yl)amino)-5-(trifluoromethyl)pyrimidin-4-yl)thiophene-3-carboxamide] | ≥ 7.00 | ≥ 7.00 | ≥ 7.00
8 | Cn1cc(S(=O)(=O)N2CC[C@H](Nc3ncc(C(F)(F)F)c(-c4cc(C(N)=O)c(CC(C)(C)O)s4)n3)[C@H](F)C2)cn1 [Example 46, 5-(2-(((3R,4S)-3-fluoro-1-((1-methyl-1H-pyrazol-4-yl)sulfonyl)piperidin-4-yl)amino)-5-(trifluoromethyl)pyrimidin-4-yl)-2-(2-hydroxy-2-methylpropyl)thiophene-3-carboxamide] | ≥ 7.00 | ≥ 7.00 | ≥ 7.00
9 | Cn1cnc(S(=O)(=O)N2CC[C@H](Nc3ncc(C(F)(F)F)c(-c4cc(C(N)=O)c(CC(C)(C)O)s4)n3)[C@H](F)C2)c1 [Example 47, 5-(2-(((3R,4S)-3-fluoro-1-((1-methyl-1H-imidazol-4-yl)sulfonyl)piperidin-4-yl)amino)-5-(trifluoromethyl)pyrimidin-4-yl)-2-(2-hydroxy-2-methylpropyl)thiophene-3-carboxamide] | ≥ 7.00 | ≥ 7.00 | 6.30 to 7.00
10 | Cn1cc(S(=O)(=O)N2CC[C@@H](Nc3ncc(C(F)(F)F)c(-c4cc(C(N)=O)c(CC(C)(C)O)s4)n3)[C@H](F)C2)cn1 [Example 48, 5-(2-(((3R,4R)-3-fluoro-1-((1-methyl-1H-pyrazol-4-yl)sulfonyl)piperidin-4-yl)amino)-5-(trifluoromethyl)pyrimidin-4-yl)-2-(2-hydroxy-2-methylpropyl)thiophene-3-carboxamide] | ≥ 7.00 | ≥ 7.00 | ≥ 7.00
11 | Cn1cnc(S(=O)(=O)N2CC[C@@H](Nc3ncc(C(F)(F)F)c(-c4cc(C(N)=O)c(CC(C)(C)O)s4)n3)[C@H](F)C2)c1 [Example 49, 5-(2-(((3R,4R)-3-fluoro-1-((1-methyl-1H-imidazol-4-yl)sulfonyl)piperidin-4-yl)amino)-5-(trifluoromethyl)pyrimidin-4-yl)-2-(2-hydroxy-2-methylpropyl)thiophene-3-carboxamide] | ≥ 7.00 | ≥ 7.00 | 6.30 to 7.00
12 | Cn1cnc(S(=O)(=O)N2CCC(Nc3ncc(C(F)(F)F)c(-c4cc(C(N)=O)ns4)n3)CC2)c1 [Example 50, 5-(2-((1-((1-methyl-1H-imidazol-4-yl)sulfonyl)piperidin-4-yl)amino)-5-(trifluoromethyl)pyrimidin-4-yl)isothiazole-3-carboxamide] | ≥ 7.00 | ≥ 7.00 | ≥ 7.00
13 | Cn1cc(S(=O)(=O)N2CCC(Nc3ncc(C(F)(F)F)c(-c4cc(C(N)=O)c(CC(C)(C)O)s4)n3)CC2)cn1 [Example 51, 2-(2-hydroxy-2-methylpropyl)-5-(2-((1-((1-methyl-1H-pyrazol-4-yl)sulfonyl)piperidin-4-yl)amino)-5-(trifluoromethyl)pyrimidin-4-yl)thiophene-3-carboxamide] | ≥ 7.00 | ≥ 7.00 | ≥ 7.00

Further lines, results first:

Row | pIC50 [1] | pIC50 [2] | pIC50 [3] | SMILES
14 | ≥ 7.00 | ≥ 7.00 | ≥ 7.00 | Cc1cnc(-c2nc(NC3CCN(S(=O)(=O)c4cn(C)cn4)CC3)ncc2C(F)(F)F)s1 [Example 32, N-(1-((1-methyl-1H-imidazol-4-yl)sulfonyl)piperidin-4-yl)-4-(5-methylthiazol-2-yl)-5-(trifluoromethyl)pyrimidin-2-amine]
15 | ≥ 7.00 | ≥ 7.00 | ≥ 7.00 | CC(O)c1sc(-c2nc(NC3CCN(S(=O)(=O)c4cn(C)cn4)CC3)ncc2C(F)(F)F)cc1C#N (stereo not drawn) [Example 33, 2-(1-hydroxyethyl)-5-(2-((1-((1-methyl-1H-imidazol-4-yl)sulfonyl)piperidin-4-yl)amino)-5-(trifluoromethyl)pyrimidin-4-yl)thiophene-3-carbonitrile]
16 | ≥ 7.00 | ≥ 7.00 | ≥ 7.00 | CC(O)c1sc(-c2nc(N[C@H]3CCN(S(=O)(=O)c4cnn(C)c4)C[C@H]3F)ncc2C(F)(F)F)cc1C#N (stereo partly drawn) [Example 34, 5-(2-(((3R,4S)-3-fluoro-1-((1-methyl-1H-pyrazol-4-yl)sulfonyl)piperidin-4-yl)amino)-5-(trifluoromethyl)pyrimidin-4-yl)-2-(1-hydroxyethyl)thiophene-3-carbonitrile]
17 | ≥ 7.00 | ≥ 7.00 | ≥ 7.00 | CC(O)c1sc(-c2nc(N[C@H]3CCN(S(=O)(=O)c4cn(C)cn4)C[C@H]3F)ncc2C(F)(F)F)cc1C#N (stereo partly drawn) [Example 35, 5-(2-(((3R,4S)-3-fluoro-1-((1-methyl-1H-imidazol-4-yl)sulfonyl)piperidin-4-yl)amino)-5-(trifluoromethyl)pyrimidin-4-yl)-2-(1-hydroxyethyl)thiophene-3-carbonitrile]
18 | ≥ 7.00 | ≥ 7.00 | ≥ 7.00 | CC(O)c1sc(-c2nc(N[C@@H]3CCN(S(=O)(=O)c4cnn(C)c4)C[C@H]3F)ncc2C(F)(F)F)cc1C#N (stereo partly drawn) [Example 36, 5-(2-(((3R,4R)-3-fluoro-1-((1-methyl-1H-pyrazol-4-yl)sulfonyl)piperidin-4-yl)amino)-5-(trifluoromethyl)pyrimidin-4-yl)-2-(1-hydroxyethyl)thiophene-3-carbonitrile]
19 | ≥ 7.00 | ≥ 7.00 | ≥ 7.00 | CC(O)c1sc(-c2nc(N[C@@H]3CCN(S(=O)(=O)c4cn(C)cn4)C[C@H]3F)ncc2C(F)(F)F)cc1C#N (stereo partly drawn) [Example 37, 5-(2-(((3R,4R)-3-fluoro-1-((1-methyl-1H-imidazol-4-yl)sulfonyl)piperidin-4-yl)amino)-5-(trifluoromethyl)pyrimidin-4-yl)-2-(1-hydroxyethyl)thiophene-3-carbonitrile]
20 | ≥ 7.00 | 6.30 to 7.00 | 6.30 to 7.00 | C[C@@H]1CN(S(=O)(=O)c2cnn(C)c2)CC[C@@H]1Nc1ncc(C(F)(F)F)c(-c2cc(C#N)c(CC(C)(C)O)s2)n1 [Example 38, 2-(2-hydroxy-2-methylpropyl)-5-(2-(((3R,4S)-3-methyl-1-((1-methyl-1H-pyrazol-4-yl)sulfonyl)piperidin-4-yl)amino)-5-(trifluoromethyl)pyrimidin-4-yl)thiophene-3-carbonitrile]
